Results reported in patent US20220372162A1, “PCT/US2020/066088” (TeneoFour, Inc., priority 2019, published 2022).
Entries after “also recorded” stand apart in the source; their conditions may differ.

Columns and labels:
[1] = system: sirtuin activity in CD38 positive Ramos cells; experiment: Sirtuin activity assay (SIRT-GLO) in CD38 positive Ramos cells; format: cell-based; conditions: 24 h
Excerpt: To quantify sirtuin activity, Promega's one-step SIRT-GLO™ assay was used. The reagent formulation contains an acetylated lysine attached to aminoluciferin, along with a peptide sequence derived from p53. Upon deacetylation of the lysine by a sirtuin, the deacetylated peptide becomes a substrate for the developer reagent present in the reaction mixture. This yields free aminoluciferin that reacts with luciferase to give a luminescent signal that is stable and quantifiable.
CD38 positive Ramos cells were treated with a bispecific, bivalent three chain binding compound as depicted in FIG. 11, Panel D, or isotype control, in a 96 well plate (2×10^5 cells/well). After 24 h, the plate was centrifuged at 500 g for 5 minutes, and the cells were washed with 1×PBS followed by centrifugation. The cell pellet was resuspended in 50 μL of M-PER Mammalian Protein extraction reagent on ice. The cells were transferred to 1.5 mL tubes and homogenized for 30 seconds. The lysate was centrifuged at 14,000 rpm for 5 minutes at 4° C. The supernatant was incubated with 1:30 of anti-SIRT1 antibody (Abcam #32441) for 4 h on a rotator at 4° C. Protein A slurry (25 μL per 50 μL of lysate) was added and further incubated for 2 h at room temperature Immunoprecipitation (IP) buffer (Pierce #28379) was added (500 μL per tube) followed by centrifugation at 2500 g for 2 minutes. The wash step with IP buffer was repeated and 50 μL of IgG elution buffer (Pierce #21004) was added. After 5 minutes of incubation at room temperature, the eluate was centrifuged at 2500 g for 2 minutes. The supernatant was immediately neutralized with 1 M Tris (pH 9), 10 μL per 100 μL eluate. The eluate was used in the SIRT GLO™ assay (Promega #G6450) at a 1:1 ratio with the SIRT GLO™ reagent, per the manufacturer's instructions.
CD38 positive Ramos cells were treated with a bispecific, bivalent three chain binding compound (depicted in FIG. 11, Panel D) in combination with nicotinamide mononucleotide (NMN) at a concentration of 400 nM, or isotype control, in a 96 well plate (2×10^5 cells/well). After 24 h, the plate was centrifuged at 500 g for 5 minutes, and the cells were washed with 1×PBS followed by centrifugation. The cell pellet was resuspended in 50 μL of M-PER Mammalian Protein extraction reagent on ice. The cells were transferred to 1.5 mL tubes and homogenized for 30 seconds. The lysate was centrifuged at 14,000 rpm for 5 minutes at 4° C. The supernatant was incubated with 1:30 of anti-SIRT1 antibody (Abcam #32441) for 4 h on a rotator at 4° C. Protein A slurry (25 μL per 50 μL of lysate) was added and further incubated for 2 h at room temperature Immunoprecipitation (IP) buffer (Pierce #28379) was added (500 μL per tube) followed by centrifugation at 2500 g for 2 minutes. […]

CD4 T cells = experiment: T-cell proliferation and IFNγ production in mixed lymphocyte reaction (MLR); format: cell-based
Description: Various binding compounds in accordance with embodiments of the invention were assessed for their ability to inhibit CD38 hydrolase activity without activating a mixed lymphocyte reaction (MLR). MLR occurs when MHC mismatched immune cells interact, triggering an immune response by T cell hyperproliferation and exacerbated cytokine release. […] The binding compounds were formulated at a concentration of 0.97 mg/mL in 20 mM Citrate, 100 mM NaCl, pH 6.2. Test substance was stored frozen at −80° C. until the day of use.
Analyses were performed to assess CD4 T cell proliferation and IFNγ production. The results are depicted in FIG. 20. […] The percentage of CD4 T cell proliferation is also shown in Panel C for a variety of other binding compounds.

Ramos cells [2] = experiment: NAD+ assay in Ramos cells; format: cell-based; conditions: presence of NMN compared to absence of NMN, FIG. 19
Description: (§1) Studies were performed to assess whether blocking the ecto-NMNase activity of CD38 with the subject binding compounds causes an increase in the NMN-mediated increase in NAD+ within the CD38 expressing B cell lines Ramos and Daudi. The assay is based on the enzymatic cycling reaction in which NAD+ is reduced to NADH. NAD+ reacts with a colorimetric probe that produces a colored product. The intensity of the color is proportional to the NAD+ and NADH within a sample. Oxidized form is selectively destroyed by heating in basic solution, while reduced form is not stable in acidic solution.
(§2) Daudi or Ramos cells (2×10^5) were treated with antibody at a 5 nM concentration for 14 h. NAD+ was measured using an NAD+/NADH cycling assay kit (Cell Biolabs #MET-5014). Briefly, cell lysates were prepared in extraction buffer by homogenization, centrifugation at 4° C. at 14,000 rpm for 5 minutes, and deproteination through a 10 kDa spin filter. […] After 3 h, color development was read at 450 nm.
(§3) Daudi or Ramos cells (2×10^5) were treated with antibody at a 5 nM concentration in the presence or absence of 400 nM NMN for 14 h. NAD+ was measured using the NAD+/NADH cycling assay kit (Cell Biolabs #MET-5014). […] After 3 h, color development was read at 450 nm.

Daudi cells [3] = experiment: NAD+ assay in Daudi cells; format: cell-based; conditions: presence of NMN compared to absence of NMN, FIG. 19
Description: as §1, §2, §3

Daudi cells [4] = experiment: Direct apoptosis / direct cytotoxicity of Daudi cells; format: cell-based
Description: (§4) Induction of direct apoptosis was assessed by Annexin-V and 7-AAD staining using flow cytometry. Annexin-V is commonly used to detect apoptotic cells by its ability to bind to phosphatidylserine, a marker of apoptosis when it is present on the outer leaflet of the plasma membrane. 7-AAD binds to double stranded DNA that is taken up by dying or dead cells with compromised membranes. The CD38 positive cell lines used in this study were Daudi and Ramos cells.
(§5) A quad gate was used to distinguish between early apoptotic (Annexin-V+, 7-AAD−), late apoptotic (Annexin-V+, 7-AAD+), and viable cells (Annexin-V−, 7-AAD−). Concentration of binding compound was plotted against percent viability in Graphpad Prism 8. The resulting plot was fitted to a non-linear regression to determine EC50.

[5] = system: CD38 negative cell lines (293-Freestyle, HL-60, K562, CHO); experiment: Off target cell binding by flow cytometry (Example 10); conditions: K562 and HL-60 cells, FIG. 23
Description: On target and off target cell binding of a bispecific, bivalent three chain binding compound as depicted in FIG. 11, Panel D, was assessed. The binding compound was formulated at a concentration of 0.97 mg/mL in 20 mM Citrate, 100 mM NaCl, pH 6.2. Test substance was stored frozen at −80° C. until the day of use. Binding to CD38 positive and CD38 negative cell lines was assessed using flow cytometry. The CD38 positive cell lines used were Daudi, Ramos, and a CHO cell line transfected to stably express CD38. The CD38 negative cell lines used were 293-Freestyle, HL-60, K562, and CHO.
The average MFI of unstained wells was set as the background signal. To calculate fold over background of each experimental sample, the experimental sample MFI was divided by the average background MFI.

[6] = system: Xeno-GvHD in NOD scid gamma (NSG) mice; experiment: Xeno-GvHD model, human PBMCs in NSG mice; format: in vivo
Description: Xeno-GvHD was induced using 1.5 grays of radiation to facilitate colonization of human PBMCs in NOD scid gamma (NSG) mice. […] Survival was monitored until day 50. GvHD clinical score was determined mainly based on weight loss, posture, activity and fur texture. […] In contrast, the animals treated with PBMCs+PBS or PBMCs+mCD38 lost body weight quickly and were sacrificed before day 25 because of more than 20% weight loss. The survival, body weight, and clinical score data are shown in FIGS. 30, 31 and 32, respectively.

Ramos cells [7] = experiment: Direct apoptosis of Ramos cells; format: cell-based; conditions: Annexin-V and 7-AAD staining, flow cytometry, FIG. 24
Description: as §4, §5

[8] = biological target: T1, human CD38 expressed on CHO cells (Homo sapiens, UniProt P28907); experiment: Cell-based CD38 hydrolase activity, UniAb mixtures, bivalent and tetravalent formats (FIGS. 7, 8, 12, 16); conditions: tetravalent UniAbs with human IgG4 Fc region, FIG. 16; read-out: IC50, inhibition of hydrolase activity of human CD38 expressed on CHO cells
T1 construct: expressed in transfected cells; host or cells: CHO cells stably expressing human CD38
Description: After incubation, ε-NAD^+ (BioLog Cat. No. N010) was added to a final concentration of 150 μM. Production of a fluorescent product was measured at 1 hour (ex 300 nm/em 410 nm) using a Spectramax i3x plate reader (Molecular Devices). Hydrolase enzyme inhibition was assessed by comparing signal from UniAb™-treated wells to the percent of total enzymatic activity observed when CD38 protein was treated with an isotype control antibody (max).

NC(=O)c1ccc[n+]([C@@H]2O[C@H](COP(=O)([O-])O)[C@@H](O)[C@H]2O)c1 [NMN, nicotinamide mononucleotide, reference compound]
sirtuin activity, luminescence (in words) ([1]; NMN 400 nM, FIG. 28): did not result in an increase in sirtuin activity

Daratumumab: antibody specific for human CD38, approved in 2015 for Multiple Myeloma
percentage of CD4 T cell proliferation in MLR (in words) (CD4 T cells; FIG. 20, Panel A): did result in an increase | IFNγ production in MLR (in words) (CD4 T cells; compared to IgG4 istp control, FIG. 20, Panel B): caused an increase

Isatuximab: antibody against CD38 in clinical trials for Multiple Myeloma; VH SEQ ID NO: 30, VL SEQ ID NO: 31 [reference compound]
intracellular NAD+ levels (in words) (Ramos cells [2]): subtle difference in NAD+ increase | intracellular NAD+ levels (in words) (Daudi cells [3]): not Daudi | direct cytotoxicity of Daudi cells (in words) (Daudi cells [4]; FIG. 10): potently kill Daudi cells | direct apoptosis of Daudi cells (in words) (Daudi cells [4]; in 24 hours, stated with the NAD+ study): causes direct apoptosis

TNB-738: bispecific, bivalent three chain anti-human CD38 molecule, FIG. 11 Panel D, comprising F11A and F12A VH sequences
intracellular NAD+ levels (in words) (Ramos cells [2]): remarkably increased the NAD+ levels | intracellular NAD+ levels (in words) (Daudi cells [3]): remarkably increased the NAD+ levels | direct apoptosis of Daudi cells (in words) (Daudi cells [4]; Annexin-V and 7-AAD staining, flow cytometry, FIG. 24): did not cause direct apoptosis | off target cell binding (in words) [5]: does not bind | prevention of GvHD (in words) ([6]; clinical score based on weight loss, posture, activity and fur texture): prevention of GvHD; also recorded: able to successfully prevent GvHD | survival ([6]; day 50 after PBMC injection, treatments twice weekly until day 18): 100% | sirtuin activity, luminescence (in words) ([1]; NMN 5 nM, 50 nM or 500 nM, FIG. 29): further increased in a dose-dependent manner by the presence of increasing concentrations of NMN | sirtuin activity, luminescence (in words) ([1]; NMN 400 nM, FIG. 28): further increased by the presence of NMN | sirtuin activity, luminescence (in words) ([1]; no NMN, FIG. 26): dose-dependent increase in sirtuin activity | direct apoptosis of Ramos cells (in words) (Ramos cells [7]): did not cause direct apoptosis

B1: CD38F12A_2GS_CD38F11A: tetravalent bispecific UniAb, FIG. 11 Panel B format, distal VH CD38F12A, GS linker, proximal VH CD38F11A, human IgG4 Fc region (antibody)
heavy: GVQLVESGGGLVQPGGSLRLSCTASGFTFSSSWMSWVRQAPGKGLEWVANIKQDGSEKDYVDSAKGRFTISRDNAKNSLYLQMNNLRAEDTAVYYCARDRRGPFFHIWGQGTLVTVSSGGGGSQVQLVESGGGVVQPGRSLRLSCAASGFTFSSYGMHWVRQAPGKEREWVAVISDDGSNKYYADSVKGRFTISRDNSKNTLYLQMNSLRVEDTAVYYCAKDRGTMRVVVYDTLDIWGQGTLVTVSS
modifications: left off: a dimerising Fc or GST
IC50 [8]: 4.5 nM
